Reference: US12128035B2, “Activating pyruvate kinase R” (Novo Nordisk Health Care AG, priority 2021, dated 2024)

Test system: ATP blood levels
Experiment: Phase 1 SAD/MAD: blood ATP (LC-MS/MS) in healthy volunteers
Assay type: in vivo, human
Experimental: In this study, SAD/MAD cohorts are randomized (3 to 1) to receive Compound 1 or placebo (P). Compound 1 was evaluated first in 4 healthy SAD cohorts and 4 healthy MAD (14-day dosing period) cohorts. Based on the safety, and PK/PD profile from HS, Compound 1 is then evaluated in 1 SCD SAD cohort and 2 SCD MAD cohorts. Specifically, based on the safety and pharmacokinetic/pharmacodynamics (PK/PD) profile in healthy volunteer studies, Compound 1 is evaluated in patients (pts) with SCD, first in a single dose (SD or SAD) cohort and then in multiple-dose (MD or MAD) cohorts (14-day and 12-week). Safety assessments include AEs, vital signs, ECGs and laboratory parameters. PK/PD blood sampling was performed on Day 1 (SAD/MAD) and Day 14 (MAD) and up to 72 h after the last dose and at the end-of-study visit. PD parameters included 2,3-DPG, ATP, and p50 in all cohorts with additional PD studies (including oxygen scan) performed only in the SCD cohorts. PD parameters included 2,3-DPG, ATP, p50, RBC deformability with controlled deoxygenation and reoxygenation (Lorrca® oxygen scan) and varying osmolality (Lorrca® osmoscan)). To maintain study blind, pt identifiers were removed when needed.
In the MAD cohorts, the subjects' blood ATP levels were measured […] by a qualified LC-MS/MS method for the quantitation of ATP in blood. […] Table 20A reports the median percentage change in blood ATP levels, relative to baseline, measured over time after the first dose on days 1 and 14 in healthy volunteers who received daily doses of Compound 1 (100 mg BID, 200 mg BID, 300 mg BID, or 400 mg QD) or placebo for 14 days. Table 20B reports the mean percentage change in ATP blood levels, relative to baseline, measured over time after the first dose on days 1 and 14 in healthy volunteers who received daily doses of Compound 1 (100 mg BID, 200 mg BID, 300 mg BID, or 400 mg QD) for 14 days.
The following procedures are employed for the analysis of ATP and 2,3-DPG in human whole blood K2EDTA using a protein precipitation extraction procedure and analysis by LC-MS/MS.
The following procedures are used for sample extraction prior to analysis via LC-MS/MS. 15.0 μL of the calibration standards, quality controls, matrix blanks, and samples are aliquoted into a 96-well plate. 50.0 μL of the internal standard spiking solution is added to all samples on the plate, with the exception of the matrix blank samples; 50.0 μL of water is added to the matrix blank samples. Subsequently, 150 μL of water is added to all samples on the plate. The plate is then covered and agitated by vortex at high speed for ten minutes, after which 750 μL of methanol is added to all samples on the plate. The plate is covered and agitated by vortex for approximately 1 minute. The plate is then centrifuged at approximately 3500 RPM at approximately 4° C. for five minutes. After centrifugation, a liquid handler is used to transfer 50 μL of each sample to a new 96-well plate, and 200 μL of acetonitrile is added to all samples on the plate. The newly prepared plate is covered and agitated by vortex for approximately 1 minute. The plate is then centrifuged at approximately 3500 RPM at approximately 4° C. for 2 minutes.

[1] = HV 100 mg BID, Day 1, 0 h after first daily dose
[2] = HV 100 mg BID, Day 1, 6 h after first daily dose
[3] = HV 100 mg BID, Day 1, 8 h after first daily dose
[4] = HV 100 mg BID, Day 1, 12 h after first daily dose
[5] = HV 100 mg BID, Day 1, 16 h after first daily dose
[6] = HV 100 mg BID, Day 1, 24 h after first daily dose
[7] = HV 100 mg BID, Day 14, 0 h after first daily dose
[8] = HV 100 mg BID, Day 14, 6 h after first daily dose
[9] = HV 100 mg BID, Day 14, 8 h after first daily dose
[10] = HV 100 mg BID, Day 14, 12 h after first daily dose
[11] = HV 100 mg BID, Day 14, 16 h after first daily dose
[12] = HV 100 mg BID, Day 14, 24 h after first daily dose
[13] = HV 100 mg BID, Day 14, 48 h after first daily dose
[14] = HV 100 mg BID, Day 14, 72 h after first daily dose
[15] = HV 200 mg BID, Day 1, 0 h after first daily dose
[16] = HV 200 mg BID, Day 1, 6 h after first daily dose
[17] = HV 200 mg BID, Day 1, 8 h after first daily dose
[18] = HV 200 mg BID, Day 1, 12 h after first daily dose
[19] = HV 200 mg BID, Day 1, 16 h after first daily dose
[20] = HV 200 mg BID, Day 1, 24 h after first daily dose
[21] = HV 200 mg BID, Day 14, 0 h after first daily dose
[22] = HV 200 mg BID, Day 14, 6 h after first daily dose
[23] = HV 200 mg BID, Day 14, 8 h after first daily dose

O=C([C@H](CO)c1ccccc1)N1CC2=C(C1)CN(S(=O)(=O)c1cnc3c(c1)OCCO3)C2 (single isomer, unassigned) [Compound 1]
Mean Percentage Change in ATP Levels [1]: 0%
Median Percentage Change in ATP Levels [1]: 0%
Mean Percentage Change in ATP Levels [2]: −5.6%
Median Percentage Change in ATP Levels [2]: −5.7%
Mean Percentage Change in ATP Levels [3]: −2.0%
Median Percentage Change in ATP Levels [3]: 0.0%
Mean Percentage Change in ATP Levels [4]: −0.6%
Median Percentage Change in ATP Levels [4]: −1.2%
Mean Percentage Change in ATP Levels [5]: 1.9%
Median Percentage Change in ATP Levels [5]: 3.3%
Mean Percentage Change in ATP Levels [6]: 4.4%
Median Percentage Change in ATP Levels [6]: 5.7%
Mean Percentage Change in ATP Levels [7]: 49%
Median Percentage Change in ATP Levels [7]: 42%
Mean Percentage Change in ATP Levels [8]: 45%
Median Percentage Change in ATP Levels [8]: 44%
Mean Percentage Change in ATP Levels [9]: 49%
Median Percentage Change in ATP Levels [9]: 48%
Mean Percentage Change in ATP Levels [10]: 45%
Median Percentage Change in ATP Levels [10]: 45%
Mean Percentage Change in ATP Levels [11]: 47%
Median Percentage Change in ATP Levels [11]: 45%
Mean Percentage Change in ATP Levels [12]: 55%
Median Percentage Change in ATP Levels [12]: 55%
Mean Percentage Change in ATP Levels [13]: 51%
Median Percentage Change in ATP Levels [13]: 52%
Mean Percentage Change in ATP Levels [14]: 47%
Median Percentage Change in ATP Levels [14]: 49%
Mean Percentage Change in ATP Levels [15]: 0%
Median Percentage Change in ATP Levels [15]: 0%
Mean Percentage Change in ATP Levels [16]: 1.7%
Median Percentage Change in ATP Levels [16]: −4.3%
Mean Percentage Change in ATP Levels [17]: 4.7%
Median Percentage Change in ATP Levels [17]: 5.4%
Mean Percentage Change in ATP Levels [18]: 6.7%
Median Percentage Change in ATP Levels [18]: 4.3%
Mean Percentage Change in ATP Levels [19]: 5.6%
Median Percentage Change in ATP Levels [19]: 6.0%
Mean Percentage Change in ATP Levels [20]: −0.2%
Median Percentage Change in ATP Levels [20]: 1.1%
Mean Percentage Change in ATP Levels [21]: 59%
Median Percentage Change in ATP Levels [21]: 62%
Mean Percentage Change in ATP Levels [22]: 50%
Median Percentage Change in ATP Levels [22]: 48%
Mean Percentage Change in ATP Levels [23]: 56%
Median Percentage Change in ATP Levels [23]: 58%
